Test results from patent US10245229B2, “Pulmonary delivery of mRNA to non-lung target cells” (Shire Human Genetic Therapies, Inc., priority 2012, dated 2019).

Tested on: non-lung cells
Assay: Comparison of delivery vehicles: luminescence in non-lung cells following pulmonary delivery
Assay type: in vivo
Conditions: following pulmonary delivery of FFL mRNA with the delivery vehicle

CCCCCCCC/C=C\CCCCCCCC(=O)OCC(C[N+](C)(C)C)OC(=O)CCCCCCC/C=C\CCCCCCCC (stereo not shown) [DOTAP, 1,2-Dioleoyl-3-Trimethylammonium-Propane]
Luminescence / protein production in non-lung cells: did not show luminescence in non-lung cells
